Measured values as given in patent publication US20260364184A1, “COMPOUND BASED ON OXOISOINDOLINYL-SUBSTITUTED TETRAHYDROPYRIMIDINE-DIONE AND USE THEREOF” (GLUETACS THERAPEUTICS (SHANGHAI) CO., LTD., priority 2023, published 2026).
Like-named read-outs stand apart in the source and are kept apart here.

Experiments:
[1] = test system: Human myeloid monocytic leukemia cell line (MV-4-11); assay: Inhibition of MV-4-11 cell proliferation (CellTiter luminescent viability); format: cell-based; settings: Homo sapiens, MV4-11, 96 hours; for inhibition at 0.01 µM: MV-4-11, 10 nM, read-out: Inhibition Rate at 10 nM (%); for inhibition at 0.5 µM: MV-4-11, 500 nM, read-out: Inhibition Rate at 500 nM (%)
In short: (§1)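 IC50 is fitted from luminescent viability (CellTiter-Meiluncell) curves. Nine-point, 5-fold dilution series (top stock 2000 μM) are added at 0.5 μL per 100 μL medium to cells plated the day before, with growth at 37 °C and 5% CO2.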

[2] = test system: Human lung cancer cell line (H292); assay: Inhibition of H292 cell proliferation (CellTiter luminescent viability); format: cell-based; settings: 96 hours; for inhibition at 0.01 µM: H292, 10 nM, read-out: Inhibition Rate at 10 nM (%); for inhibition at 0.5 µM: H292, 500 nM, read-out: Inhibition Rate at 500 nM (%)
Experimental: (§2) The tumor cells used herein were cultured in a cell culture medium listed in table 3 at 37 °C in an incubator with 5% CO2. Prior to experimentation, all cell lines used were correctly identified by STR profiling, and tested negative for mycoplasma contamination using a mycoplasma detection kit through routine screenings.
(§3) The IC50 values of the compounds of the present disclosure (including the compounds in Table 1, Table 2, and Examples 1-468) were determined using the CellTiter-Meiluncell Luminescent Cell Viability Assay Kit from Dalian Meilun Biotech Co., Ltd. The detailed procedure is as follows: Tumor cells were seeded in 96-well cell culture plates at the densities specified in Table 4. On the following day, the test compounds of the present disclosure were subjected to serial dilution. The dilution can be performed according to one of the following two methods: • (1) The first dilution method: The test compounds of the present disclosure (including the compounds in Table 1, Table 2, and Examples 1-468) were subjected to 5-fold serial dilutions starting from a highest concentration of 2000 μM, resulting in a total of 9 concentrations from high to low (2000, 400, 80, 16, 3.2, 0.64, 0.128, 0.0256, 0.00512 μM). Subsequently, 0.5 μL of the test compound dilution was transferred into the 96-well plate containing the cells, with each well containing 100 μL of cell culture medium. […] Into the 96-well plate, the diluted test compounds and corresponding detection reagents were added, resulting in final test compound concentrations of 500 nM and 10 nM, respectively. The experimental procedure is described below using the diluted 2 μM test compound as an example.
(§4) 0.5 μL of the aforementioned diluted compound of the present disclosure (including the compounds in Table 1, Table 2, and Examples 1-468) was added to the seeded cells in 100 μL of medium, yielding a final test compound concentration of 10 nM. After the cells were treated with the compounds of the present disclosure for a specified period, the cell viability assay reagent was added to the culture medium according to the kit's instructions to determine cell viability. […] All controls were treated using the same procedure as the compounds of the present disclosure. The growth inhibition curves for the compounds of the present disclosure were plotted using Prism GraphPad software, and the IC50 values were calculated therefrom.

[3] = test system: Human diffuse large B-cell lymphoma cell line (TMD8); assay: Inhibition of TMD8 cell proliferation (CellTiter luminescent viability); format: cell-based; settings: Homo sapiens, TMD8, 96 h, Table IJ3, Tau inhibitor-based
Experimental: as §2, §3, §4

[4] = target: T1, human Cereblon WT GST-tagged protein (CRBN) (Homo sapiens, UniProt Q96SW2); assay: CRBN binding by HTRF (Cereblon binding kit)
T1 construct: purchased CISBIO 64BDCRBNPEH
T1 sequence (Q96SW2 whole entry): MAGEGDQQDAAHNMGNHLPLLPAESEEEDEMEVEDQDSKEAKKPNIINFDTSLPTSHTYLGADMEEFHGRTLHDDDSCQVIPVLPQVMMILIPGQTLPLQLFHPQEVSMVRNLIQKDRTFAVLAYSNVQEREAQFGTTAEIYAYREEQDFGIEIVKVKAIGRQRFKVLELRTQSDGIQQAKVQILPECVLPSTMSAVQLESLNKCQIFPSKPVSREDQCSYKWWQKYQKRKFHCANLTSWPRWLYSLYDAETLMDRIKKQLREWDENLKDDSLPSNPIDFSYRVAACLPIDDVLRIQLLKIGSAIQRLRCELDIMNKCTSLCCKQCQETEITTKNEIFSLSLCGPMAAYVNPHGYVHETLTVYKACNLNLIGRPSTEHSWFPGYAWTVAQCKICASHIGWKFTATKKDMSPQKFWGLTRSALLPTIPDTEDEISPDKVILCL
Experimental: The CEREBLON BINDING kits (specification: 10,000 tests; product number: Catalog #64BDCRBNPEH; CISBIO company) was used to determine the CRBN binding ability of the compounds to be tested through a HTRF method (homogeneous time-resolved fluorescence). The specific methods are as follows: • 1. According to the instructions of the CEREBLON BINDING KITS, serial dilutions were performed for the test compounds of the present disclosure (including the compounds in Table 1, Table 2, and Examples 1-468) and for lenalidomide. Specifically, diluent #9 (1×) solution was used as the diluent, and multiple concentration gradients were set. The dilution operation can be performed according to one of the following two methods: • (1) The first dilution method: The test compounds of the present disclosure (including the compounds in Table 1, Table 2, and Examples 1-468) were subjected to 5-fold serial dilutions starting from a highest concentration of 40 μM, resulting in a total of 7 concentrations from high to low (40, 8, 1.6, 0.32, 0.064, 0.0128, 0.00256 μM). Subsequently, the diluted test compounds and corresponding detection reagents were added to each well of a 96-well plate, resulting in final test compound concentrations of 10, 2, 0.4, 0.08, 0.016, 0.0032, and 0.00064 μM, respectively. • (2) As an alternative, a second dilution method can be used: The test compounds of the present disclosure (including the compounds in Table 1, Table 2, and Examples 1-468) were subjected to 4-fold gradient dilutions starting from a highest concentration of 8 μM, resulting in 2 concentrations (8 μM, 2 μM). Into the 96-well plate, the diluted test compounds and corresponding detection reagents were added, resulting in final test compound concentrations of 2 μM and 0.5 μM, respectively. The experimental procedure is described below using the diluted 8 μM test compound and lenalidomide solutions as examples. • 2. 2.5 μL of the above 8 μM of the tested compounds and lenalidomide solution, as well as the same volume of diluent #9 (1×) solution (solvent control group, Std0) were added to each well of a 96-well plate, respectively. Then, 2.5 μL of human Cereblon WT GST-tagged protein solution was added to each well. Finally, 5 μL of the thoroughly mixed Thalidomide-Re reagent and GST Eu antibody working solution were added to each of the aforementioned wells. The final concentration of the tested compounds and lenalidomide in each well was 2 μM. • 3. The blank control wells were sequentially added with 2.5 μL of diluent #9 (1×) solution, 2.5 μL of PROTAC binding buffer, and 5 μL of thoroughly mixed Thalidomide-Re reagent and GST Eu antibody working solution. • 4. After sealing and incubating the solutions in the aforementioned wells at room temperature for 3 hours, the absorbance values at emission wavelengths of 620 nm and 665 nm were detected by the HTRF method using a Spark microplate reader (V3.1 SP1).
The corresponding CRBN binding inhibition rate was calculated using the following method:
Rcompound=OD 665 nmcompound/OD 620 nmcompound−OD 665 nmcontrol/OD 620 nmcontrol
RStd0=OD 665 nmStd0/OD 620 nmStd0−OD 665 nmcontrol/OD 620 nmcontrol inhibition rate (%)=(1−Rcompound/RStd0)*100
Note: OD 665 nmcompound is the absorbance value of each well of the compounds to be tested of the present disclosure at an emission wavelength of 665 nm. OD 620 nmcompound is the absorbance value of each well of the compounds to be tested of the present disclosure at an emission wavelength of 620 nm. OD 665 nmcontrol is the absorbance value of the blank control well at an emission wavelength of 665 nm. OD 620 nmcontrol is the absorbance value of the blank control well at an emission wavelength of 620 nm. OD 665 nmStd0 is the absorbance value of the solvent control well at an emission wavelength of 665 nm. OD 620 nmStd0 is the absorbance value of the solvent control well at an emission wavelength of 620 nm.

[5] = test system: Human Multiple myeloma cell line (MM.1S); assay: Inhibition of MM.1S cell proliferation (CellTiter luminescent viability); format: cell-based; settings: Homo sapiens, MM1.S, Table IJ1, Tau inhibitor-based, 96 hours
In short: as §1

[6] = Table IE3, CDK4/6 inhibitor-based
[7] = NCI-H292, Table IE2, CDK4/6 inhibitor-based
[8] = NCI-H292, Table IM1, CDK9 inhibitor-based

Compound	inhibition at 0.01 µM [1, 6] [%]	inhibition at 0.5 µM [1, 6] [%]	inhibition at 0.01 µM [2, 7] [%]	inhibition at 0.5 µM [2, 7] [%]	inhibition at 0.01 µM [2, 8] [%]	inhibition at 0.5 µM [2, 8] [%]	also measured
CN(C)C(=O)c1cc2cnc(Nc3ccc(N4CCC(CN5CCN(c6cccc7c6C(=O)N(N6CCC(=O)NC6=O)C7=O)CC5)CC4)cn3)nc2n1C1CCCC1 [GT-05202, 7-cyclopentyl-2-((5-(4-((4-(2-(2,4-dioxotetrahydropyrimidin-1(2H)-yl)-1,3-dioxoisoindolin-4-yl)piperazin-1-yl)methyl)piperidin-1-yl)pyridin-2-yl)amino)-N,N-dimethyl-7H-pyrrolo[2,3-d]pyrimidine-6-carboxamide]	15 to 20	40 to 60	35 to 40	35 to 40	–	–	–
CN(C)C(=O)c1cc2cnc(Nc3ccc(N4CCN(Cc5ccc6c(c5)CN(N5CCC(=O)NC5=O)C6=O)CC4)cn3)nc2n1C1CCCC1 [GT-06335, 7-cyclopentyl-2-((5-(4-((2-(2,4-dioxotetrahydropyrimidin-1(2H)-yl)-1-oxoisoindolin-5-yl)methyl)piperazin-1-yl)pyridin-2-yl)amino)-N,N-dimethyl-7H-pyrrolo[2,3-d]pyrimidine-6-carboxamide]	10 to 15	40 to 60	35 to 40	30 to 35	–	–	–
CC(=O)c1c(C)c2cnc(Nc3ccc(N4CCC(N5CCN(Cc6ccc7c(c6)C(=O)N(N6CCC(=O)NC6=O)C7=O)CC5)CC4)cn3)nc2n(C2CCCC2)c1=O [GT-06583, 5-((4-(1-(6-((6-acetyl-8-cyclopentyl-5-methyl-7-oxo-7,8-dihydropyrido[2,3-d]pyrimidin-2-yl)amino)pyridin-3-yl)piperidin-4-yl)piperazin-1-yl)methyl)-2-(2,4-dioxotetrahydropyrimidin-1(2H)-yl)isoindoline-1,3-dione]	40 to 60	40 to 60	35 to 40	40 to 60	–	–	–
Cn1ncc(-c2nc(NC3CCN(CC4CCN(c5ccc6c(c5)C(=O)N(N5CCC(=O)NC5=O)C6=O)CC4)CC3)ncc2Cl)c1CC1CC1 [GT-08346, 5-(4-((4-((5-chloro-4-(5-(cyclopropylmethyl)-1-methyl-1H-pyrazol-4-yl)pyrimidin-2-yl)amino)piperidin-1-yl)methyl)piperidin-1-yl)-2-(2,4-dioxotetrahydropyrimidin-1(2H)-yl)isoindoline-1,3-dione]	–	–	–	–	0 to 5	50 to 60	–
N#CC1(CNc2cccc(-c3cc(NC4CCN(CC5CCN(c6ccc7c(c6)C(=O)N(N6CCC(=O)NC6=O)C7=O)CC5)CC4)ncc3Cl)n2)CCOCC1 [GT-08348, 4-(((5′-chloro-2′-((1-((1-(2-(2,4-dioxotetrahydropyrimidin-1(2H)-yl)-1,3-dioxoisoindolin-5-yl)piperidin-4-yl)methyl)piperidin-4-yl)amino)-[2,4′-bipyridin]-6-yl)amino)methyl)tetrahydro-2H-pyran-4-carbonitrile]	–	–	–	–	-5 to 0	30 to 40	–
N#CC1(CNc2cccc(-c3cc(NC4CCN(CC5CCN(c6cccc7c6C(=O)N(N6CCC(=O)NC6=O)C7=O)CC5)CC4)ncc3Cl)n2)CCOCC1 [GT-08349, 4-(((5′-chloro-2′-((1-((1-(2-(2,4-dioxotetrahydropyrimidin-1(2H)-yl)-1,3-dioxoisoindolin-4-yl)piperidin-4-yl)methyl)piperidin-4-yl)amino)-[2,4′-bipyridin]-6-yl)amino)methyl)tetrahydro-2H-pyran-4-carbonitrile]	–	–	–	–	15 to 20	20 to 30	–
Cn1c2ccncc2c2ccc(-c3cnc(N4CCN(Cc5ccc6c(c5)CN(N5CCC(=O)NC5=O)C6=O)CC4)c(C(F)(F)F)c3)cc21 [GT-08539, 1-(5-((4-(5-(5-methyl-5H-pyrido[4,3-b]indol-7-yl)-3-(trifluoromethyl)pyridin-2-yl)piperazin-1-yl)methyl)-1-oxoisoindolin-2-yl)dihydropyrimidine-2,4 (1H,3H)-dione]	–	–	–	–	–	–	inhibition at 0.01 µM ([3]; TMD8, 10 nM, read-out: Inhibition Rate at 10 nM (%)): 20 to 30%; inhibition at 0.5 µM ([3]; TMD8, 500 nM, read-out: Inhibition Rate at 500 nM (%)): 60 to 70%; inhibition at 0.01 µM ([1]; Table IJ2, Tau inhibitor-based): 30 to 40%; inhibition at 0.5 µM ([1]; Table IJ2, Tau inhibitor-based): 50 to 60%; inhibition at 0.5 µM ([4]; 0.5 μM, read-out: Inhibition Rate at 0.5 μM (%)): 20 to 30%; inhibition at 2 µM ([4]; 2 μM, read-out: Inhibition Rate at 2 μM (%)): 60 to 80%; inhibition at 0.01 µM ([5]; 10 nM, read-out: Inhibition Rate at 10 nM (%)): 20 to 30%; inhibition at 0.5 µM ([5]; 500 nM, read-out: Inhibition Rate at 500 nM (%)): 60 to 70%
